From US5340818A, “Methods and compositions for inhibiting tumor cell growth” (priority 1993, dated 1994)
Several values for one entry are separate records, joined by “and”; a condition that tells them apart may be missing. Equal entries are not always repeated. Where two headings read alike, the source gives them in different places.

How the values were obtained:
tumors = conditions: literature; cited from earlier work
HL-60 cells = experiment: HL-60 cell growth inhibition, 72 h; type: cell-based, human; conditions: HL-60, 72 h; for IC50: Homo sapiens, read-out: Cell Growth Inhibition, IC50
Experimental: For growth inhibition studies, HL-60 cells (1.5×10^5 /ml) were grown in RPMI 1640 media (GIBCO, Grand Island, N.Y.) at 37° C. in humidified 5% CO2 for 72 h. Viable cells were determined using trypan blue exclusion and counted in a hemocytometer. The fractional inhibition for each compound concentration (0.0025-0.05 mg/ml in 0.1% dimethylsulfoxide) was analyzed with the median-effect plot using a computer program (Chou, T. -C and P. Talalay, Adv. Enzyme Regul., 22:27-55 (1984); Chou, J. and T. -C. thou, Dose-Effect analysis with microcomputers: Quantitation of ED50, LD50, synergism, antagonism, low-dose risk, receptor ligand binding and enzyme kinetics. A computer software disk for Apple II series or IBM-PC and manual. Elsevier Science Publishers, Elsevier-BioSoft, Cambridge, United Kingdom (1986)). The median-effect concentration (IC50) was determined automatically for three to five dose-effect levels. Cell growth in the absence of plant compound and in the presence of dimethylsulfoxide was used as a control. Dimethylsulfoxide alone inhibited cell growth 3.9%±1.5% during the 72 h incubation period. Those data with negative values represent activations.

L1210 leukemia = L1210 leukemia survival time evaluation in BDF1 mice; conditions: for Day 6 AWC / MST / N/T (nine day survivors/total mice) / Survival Time, individual mice / % ILS (increase in lifespan): day 1, QDX4 ip; for % ILS (increase in lifespan): 25% or greater indicates activity; for antileukemic activity, in words: L1210, BDF mice, low doses, ip
[1] = system: RNA synthesis in HL-60 cells; experiment: Inhibition of [5-3H]Cyd incorporation into RNA of HL-60 cells; type: cell-based, human; conditions: for inhibition at 30 µg/mL: Homo sapiens, HL-60, 0.5 h
Experimental: (§1) For the precursor incorporation studies, each compound (in 0.3% dimethylsulfoxide) was preincubated with HL-60 cells (a human promyelocytic leukemic cell line) 2.2×10^6 /ml, for 15 min prior to the addition of the labeled precursor (obtained from ICN Radiochemicals, Irvine, Calif.) and then incubated for 30 min. The precursors used for incorporation into DNA, RNA and protein were [^3 H-methyl]dThd (1 μCi, 0.15 nmole/ml), [5-^3 H]Cyd (5 μCi, 0.23 nmol/ml), and [2,3,4,5-^3 H]L-Leu (0.5 μCi, 0.004 nmol/ml), respectively. Incorporation of radioactivity in the absence of a plant compound and in the presence of dimethylsulfoxide was used as a control. The control values for incorporation into DNA, RNA and protein were 8,500, 5,600 and 1,700 cpm/10^6 cells, respectively. The incubation conditions and the procedures for isolating DNA, RNA and protein fractions have been previously described (Chou, T. -C., et al., Cancer Res., 43:3074-3079 (1983)) .
(§2) HL-60 cells were incubated with [5-^3 H]Cyd or [2,3,4,5-^3 H]L-Leu in the presence and absence of alkaloids (0.03 mg/ml) in order to find the effects of the alkaloid on the incorporation of labeled precursors into RNA or protein. […] Over 90% of RNA and protein biosynthesis were inhibited by compounds 11, 16, 17, 22, 28, 29and 30 (Table 1). […] In most cases, the amount required to inhibit precursor incorporation into DNA was less than that to inhibit precursor incorporation into RNA or protein (i.e. DNA synthesis is inhibited most potently).

[2] = system: protein synthesis in HL-60 cells; experiment: Inhibition of [2,3,4,5-3H]L-Leu incorporation into protein of HL-60 cells; type: cell-based, human; conditions: for inhibition at 30 µg/mL: Homo sapiens
Experimental: as §1, §2

[3] = system: DNA synthesis in HL-60 cells; experiment: Inhibition of [3H-methyl]dThd incorporation into DNA of HL-60 cells; type: cell-based, human; conditions: for inhibition at 30 µg/mL: Homo sapiens, HL-60, at 0.03 mg/mL, read-out: % Inhibition of Precursor Incorporation, DNA
Experimental: as §1, with “control.” for “control. The control values for incorporation into DNA, RNA and protein were 8,500, 5,600 and 1,700 cpm/10^6 cells, respectively. The incubation conditions and the procedures for isolating DNA, RNA and protein fractions have been previously described (Chou, T. -C., et al., Cancer Res., 43:3074-3079 (1983)) .”
Human promyelocytic cells (HL-60) were incubated with [^3 H-methyl]dTHDin the presence and absence of a plant alkaloid.

L1210/Dx cells = experiment: Cross-resistance studies: growth inhibition of doxorubicin-resistant L1210/Dx cells; type: cell-based; conditions: for (IC50) 0/(IC50) Dx: L1210/0 and L1210/Dx; for IC50: Mus musculus, L1210/Dx (doxorubicin resistant)
L1210/0 cells = experiment: Cross-resistance studies: growth inhibition of doxorubicin-sensitive L1210/0 cells; type: cell-based; conditions: L1210/0 (doxorubicin sensitive)
[4] = at 0.03 mg/mL, read-out: % Inhibition of Precursor Incorporation, RNA
[5] = HL-60, at 0.03 mg/mL, read-out: % Inhibition of Precursor Incorporation, Protein

SMILES	cell growth inhibition, in words (HL-60 cells)	IC50 (HL-60 cells)	Day 6 AWC (L1210 leukemia; 6.25 mg/kg)	MST (L1210 leukemia; 6.25 mg/kg)	N/T (nine day survivors/total mice) (L1210 leukemia; 6.25 mg/kg)	Survival Time, individual mice (L1210 leukemia; 6.25 mg/kg)	% ILS (increase in lifespan) (L1210 leukemia; 6.25 mg/kg) [%]	antileukemic activity, in words (L1210 leukemia)	inhibition at 30 µg/mL [1, 4] [%]	inhibition at 30 µg/mL [2, 5] [%]	inhibition at 30 µg/mL [3] [%]	other results
CN(C)CCOc1cc2c(c3c1c(=O)c1ccccc1n3C)C=CC(C)(C)O2 [Compound 2, O-(dimethylaminoethyl)noracronycine]	–	–	–	–	–	–	–	–	–	–	–	antitumor activity, in words (tumors): significant antitumor activity
COc1cc(O)c2c(=O)c3cccc(OC)c3n(C)c2c1OC [Compound 17, 5-O-Methyl-citrusinine-I]	significant activity against leukemic cells in vitro	2.7 µg/mL and 8.6 µM	+1.8 g	7.0	0/2	7	0	not active	96.4	93	93.4	Day 6 AWC (L1210 leukemia; 12.5 mg/kg): +1.5 g; MST (L1210 leukemia; 12.5 mg/kg): 7.0; N/T (nine day survivors/total mice) (L1210 leukemia; 12.5 mg/kg): 0/2; Survival Time, individual mice (L1210 leukemia; 12.5 mg/kg): 7; % ILS (increase in lifespan) (L1210 leukemia; 12.5 mg/kg): 0%
CC1(C)C=Cc2c(cc(O)c3c(=O)c4cccc(O)c4[nH]c23)O1 [Compound 34, Atalaphyllidine]	comparable activity	1.3 µg/mL and 4.2 µM	+1.7 g	7.0	0/2	7	0	evidence of antileukemic activity	–	–	78.9	Day 6 AWC (L1210 leukemia; 25 mg/kg): +1.5 g; MST (L1210 leukemia; 25 mg/kg): 7.5; N/T (nine day survivors/total mice) (L1210 leukemia; 25 mg/kg): 0/2; % ILS (increase in lifespan) (L1210 leukemia; 25 mg/kg): 7%; Survival Time, individual mice (L1210 leukemia; 25 mg/kg, listed as SK 32090): 7 and 8; inhibition at 30 µg/mL ([1]; read-out: % Inhibition of Precursor Incorporation, RNA, at 0.03 mg/mL): 94.8%; inhibition at 30 µg/mL ([2]; HL-60, read-out: % Inhibition of Precursor Incorporation, Protein, at 0.03 mg/mL): 82.9%
CC(C)=CCc1c2c(c3[nH]c4ccccc4c(=O)c3c1O)C=CC(C)(C)O2 [Compound 36, Severifoline]	–	> 40 µg/mL and > 111 µM	–	–	–	–	–	–	–	–	20	antitumor activity, in words (tumors): no antitumor activity
Cn1c2c(O)cccc2c(=O)c2c(O)cc3c(c21)C=CC(C)(C)O3 [Compound 37, 11-Hydroxy-noracronycine]	comparable activity	2.3 µg/mL and 7.1 µM	+2.0 g	7.0	0/2	7	0	not active	96.6	95.3	98.6	Day 6 AWC (L1210 leukemia; 25 mg/kg): +1.8 g; MST (L1210 leukemia; 25 mg/kg): 7.0; N/T (nine day survivors/total mice) (L1210 leukemia; 25 mg/kg): 0/2; Survival Time, individual mice (L1210 leukemia; 25 mg/kg): 7; % ILS (increase in lifespan) (L1210 leukemia; 25 mg/kg): 0%
C=C(C)C1CCC2(C)CC1c1c(cc3c(c1O)c(=O)c1cccc(O)c1n3C)O2 (centres unmarked) [Compound 50, Cycloglyco-foline]	better activity than that of acronycine	5.8 µg/mL and 14.8 µM	–	–	–	–	–	–	55.7	92.1	98.7	Day 6 AWC (L1210 leukemia; 12.5 mg/kg): +1.8 g; MST (L1210 leukemia; 12.5 mg/kg): 8.5; N/T (nine day survivors/total mice) (L1210 leukemia; 12.5 mg/kg): 0/2; % ILS (increase in lifespan) (L1210 leukemia; 12.5 mg/kg): 21%; Survival Time, individual mice (L1210 leukemia; 12.5 mg/kg, listed as Sk 32091): 8 and 9; inhibition of RNA biosynthesis, in words ([1]; HL-60, 0.03 mg/ml): The same results were obtained; inhibition of protein biosynthesis, in words ([2]; HL-60, 0.03 mg/ml): The same results were obtained; inhibition of DNA synthesis, in words ([3]; HL-60, 0.03 mg/ml): inhibited DNA synthesis significantly
COc1cccc2c1C(=O)c1c(O)c3c(c(O)c1C2=O)C[C@@](O)(C(=O)CO)C[C@@H]3O[C@H]1C[C@H](N)[C@H](O)[C@H](C)O1 [Doxorubicin]	–	–	–	–	–	–	–	–	–	–	–	(IC50) 0/(IC50) Dx (L1210/Dx cells): 26.1; IC50 (L1210/Dx cells): 730 nM; IC50 (L1210/0 cells): 28 nM
COc1cc(NS(C)(=O)=O)ccc1Nc1c2ccccc2nc2ccccc12 [m-AMSA]	–	–	–	–	–	–	–	–	–	–	–	(IC50) 0/(IC50) Dx (L1210/Dx cells): 61-610; IC50 (L1210/Dx cells): 61 nM; IC50 (L1210/0 cells): 0.1 to 1 nM
